This is an account of results in US12448358B2, “Inhibitors of protein arginine deiminase 1 and methods of preparation and use thereof” (University of Massachusetts, priority 2019, dated 2025).

For the experiment, the target named is T1, PAD1 (Mus musculus, UniProt Q9Z185).
T1 construct: endogenously expressed cellular PAD1 in mouse zygotes; endogenous in cells; host or cells: ICR mouse zygotes / 4-cell embryos from in vitro fertilization
T1 sequence (Q9Z185 1-662): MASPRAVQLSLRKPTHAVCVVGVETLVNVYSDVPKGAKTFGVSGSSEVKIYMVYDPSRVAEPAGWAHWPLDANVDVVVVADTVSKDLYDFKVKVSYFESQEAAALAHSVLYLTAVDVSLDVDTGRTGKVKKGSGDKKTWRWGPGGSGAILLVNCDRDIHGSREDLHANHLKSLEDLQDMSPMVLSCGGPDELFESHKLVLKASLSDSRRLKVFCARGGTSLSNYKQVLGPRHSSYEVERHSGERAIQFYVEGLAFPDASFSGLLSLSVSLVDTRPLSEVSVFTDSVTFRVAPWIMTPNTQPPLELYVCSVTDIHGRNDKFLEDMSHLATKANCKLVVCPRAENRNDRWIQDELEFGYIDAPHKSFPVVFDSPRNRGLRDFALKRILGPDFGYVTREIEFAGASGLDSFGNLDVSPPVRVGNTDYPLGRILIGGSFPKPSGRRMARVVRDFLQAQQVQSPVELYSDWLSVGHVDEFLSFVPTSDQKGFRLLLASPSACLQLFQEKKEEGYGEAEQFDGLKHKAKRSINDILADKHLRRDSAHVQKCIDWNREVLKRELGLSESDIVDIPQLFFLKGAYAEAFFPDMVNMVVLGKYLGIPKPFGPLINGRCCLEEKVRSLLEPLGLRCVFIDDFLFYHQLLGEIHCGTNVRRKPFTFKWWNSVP
Briefly: Histone H3 citrullination in mouse embryos (immunofluorescence, confocal microscopy). In kind it is cell-based. To be noted: mouse embryos at the 4-cell stage, 100 μM inhibitor. The method, then: In Vitro Fertilization. Female ICR mice (4-6 weeks) were injected intraperitoneally with 10 international units (IU) of pregnant mare serum gonadotropin (PMSG) and after 46 h, 10 IU of human chorionicgonadotropin (hCG). After 16 h, cumulus masses were released from oviducts into HEPES-buffered HTF culture medium (HTF) (InVitro Care, Frederick, MD). Cauda epididymal mouse spermatozoa were released and placed in drops of HTF culture medium (InVitro Care). Then the sperm suspensions were added to the cumulus mass drops with a final concentration of approximately 1-3×10^5/mL. Zygotes were collected and transferred to KSOM medium containing 100 μM PAD1 inhibitor or equal volume of DMSO as a control. Then 4-cell and blastocyst stage embryos were collected after 48 and 100 h of culture, respectively.
Immunofluorescent and Confocal Microscopy. Embryos were fixed in 4% paraformaldehyde in PBS (pH 7.4) for 30 min and then permeabilized in 0.5% Triton X-100 for 30 min at room temperature. After blocking in 1% BSA/PBS at room temperature for 1 h, samples were incubated with anti-H3Cit2/8/17 antibody (Catalogue no. ab77164, Abcam) (1:100) at 4° C. for 12 h. After five washes, samples were incubated with FITC-conjugated secondary antibody for 1 h at room temperature. Nuclei were counterstained with DAPI for 5 min. […]

Structures are written as SMILES.

Regarding `N=C(CF)NCCC[C@H](NC(=O)c1cc(I)c(F)c(I)c1O)c1nc2ccccc2[nH]1` [Compound 19], the “Inhibition of histone H3 citrullination in embryos” value was “dramatically inhibit histone H3 citrullination”.
Next, `N=C(CF)NCCC[C@H](NC(=O)c1cc(I)cc(I)c1O)c1nc2ccccc2[nH]1` [Compound 1]: “dramatically inhibit histone H3 citrullination”.
